Measured values reported in ChEMBL document CHEMBL2417394, “Exquisite selectivity for human toll-like receptor 8 in substituted furo[2,3-c]quinolines” (J Med Chem, 2013).
Active and inactive are the calls of the source. The calls are words filed in the database; no cut-off is given here.

Assays:
[1] = biological target: T1, Nucleotide-binding oligomerization domain-containing protein 1 (Homo sapiens) (UniProt Q9Y239); assay: Antagonist activity at NOD1 (unknown origin)
T1 sequence (whole entry): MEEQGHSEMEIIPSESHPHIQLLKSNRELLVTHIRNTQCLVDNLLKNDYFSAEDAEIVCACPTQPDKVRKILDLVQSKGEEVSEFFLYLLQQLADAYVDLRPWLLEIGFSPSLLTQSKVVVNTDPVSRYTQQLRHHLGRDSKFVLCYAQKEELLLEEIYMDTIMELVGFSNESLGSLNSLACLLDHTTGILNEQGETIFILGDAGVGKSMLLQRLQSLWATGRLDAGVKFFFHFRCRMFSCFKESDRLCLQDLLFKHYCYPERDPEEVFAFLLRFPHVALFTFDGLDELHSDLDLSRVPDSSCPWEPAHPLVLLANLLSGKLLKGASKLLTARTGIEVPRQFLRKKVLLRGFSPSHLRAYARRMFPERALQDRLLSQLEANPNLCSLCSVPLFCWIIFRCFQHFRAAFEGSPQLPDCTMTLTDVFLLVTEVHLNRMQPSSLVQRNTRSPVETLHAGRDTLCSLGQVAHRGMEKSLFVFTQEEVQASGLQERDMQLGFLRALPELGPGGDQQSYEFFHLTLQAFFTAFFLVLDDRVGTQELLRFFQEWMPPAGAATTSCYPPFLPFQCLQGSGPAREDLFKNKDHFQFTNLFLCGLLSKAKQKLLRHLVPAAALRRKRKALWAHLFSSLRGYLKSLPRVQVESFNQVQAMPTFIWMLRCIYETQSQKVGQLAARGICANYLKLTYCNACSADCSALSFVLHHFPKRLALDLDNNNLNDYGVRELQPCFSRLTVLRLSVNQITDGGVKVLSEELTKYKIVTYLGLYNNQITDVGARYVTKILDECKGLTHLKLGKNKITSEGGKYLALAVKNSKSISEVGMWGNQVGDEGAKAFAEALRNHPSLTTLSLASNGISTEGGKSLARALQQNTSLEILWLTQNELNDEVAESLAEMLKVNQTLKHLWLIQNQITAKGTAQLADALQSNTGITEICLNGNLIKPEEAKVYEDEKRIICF

[2] = biological target: T2, Toll-like receptor 8 (Homo sapiens) (UniProt Q9NR97); assay: Antagonist activity at human TLR8 expressed in HEK293 cells co-transfected with MD2 and sAP assessed as inhibition of NF-kappaB activity by reporter gene assay; assay type: cell-based
T2 sequence (whole entry): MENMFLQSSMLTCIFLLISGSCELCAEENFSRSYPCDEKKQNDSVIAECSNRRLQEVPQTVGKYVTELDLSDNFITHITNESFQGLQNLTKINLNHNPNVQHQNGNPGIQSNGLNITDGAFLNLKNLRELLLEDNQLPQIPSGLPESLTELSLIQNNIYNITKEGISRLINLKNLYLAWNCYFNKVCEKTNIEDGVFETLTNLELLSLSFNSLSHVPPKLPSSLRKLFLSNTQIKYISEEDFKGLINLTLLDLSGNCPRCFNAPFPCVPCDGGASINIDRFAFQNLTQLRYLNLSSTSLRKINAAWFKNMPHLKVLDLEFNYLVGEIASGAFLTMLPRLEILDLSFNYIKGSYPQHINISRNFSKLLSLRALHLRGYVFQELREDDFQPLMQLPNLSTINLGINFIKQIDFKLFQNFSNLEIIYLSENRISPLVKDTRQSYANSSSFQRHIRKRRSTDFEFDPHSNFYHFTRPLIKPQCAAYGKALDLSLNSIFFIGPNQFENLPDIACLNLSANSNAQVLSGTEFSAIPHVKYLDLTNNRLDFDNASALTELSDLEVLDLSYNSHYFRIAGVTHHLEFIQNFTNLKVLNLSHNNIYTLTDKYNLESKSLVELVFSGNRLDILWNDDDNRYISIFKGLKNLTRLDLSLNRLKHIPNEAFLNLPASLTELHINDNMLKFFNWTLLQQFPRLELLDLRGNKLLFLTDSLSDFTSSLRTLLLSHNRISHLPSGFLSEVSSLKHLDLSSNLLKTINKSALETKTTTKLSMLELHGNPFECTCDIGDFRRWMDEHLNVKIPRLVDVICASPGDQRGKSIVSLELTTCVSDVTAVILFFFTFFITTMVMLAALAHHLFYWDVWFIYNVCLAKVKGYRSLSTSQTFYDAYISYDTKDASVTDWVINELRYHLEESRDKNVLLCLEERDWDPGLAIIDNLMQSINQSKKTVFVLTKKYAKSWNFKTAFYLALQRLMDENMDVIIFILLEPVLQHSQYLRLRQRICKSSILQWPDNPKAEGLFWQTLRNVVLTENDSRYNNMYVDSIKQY

[3] = biological target: Toll-like receptor 5 (Homo sapiens) (UniProt O60602); assay: Antagonist activity at human TLR5 expressed in HEK293 cells co-transfected with MD2 and sAP assessed as inhibition of NF-kappaB activity by reporter gene assay; assay type: cell-based
Toll-like receptor 5 (Homo sapiens), sequence (O60602 whole entry): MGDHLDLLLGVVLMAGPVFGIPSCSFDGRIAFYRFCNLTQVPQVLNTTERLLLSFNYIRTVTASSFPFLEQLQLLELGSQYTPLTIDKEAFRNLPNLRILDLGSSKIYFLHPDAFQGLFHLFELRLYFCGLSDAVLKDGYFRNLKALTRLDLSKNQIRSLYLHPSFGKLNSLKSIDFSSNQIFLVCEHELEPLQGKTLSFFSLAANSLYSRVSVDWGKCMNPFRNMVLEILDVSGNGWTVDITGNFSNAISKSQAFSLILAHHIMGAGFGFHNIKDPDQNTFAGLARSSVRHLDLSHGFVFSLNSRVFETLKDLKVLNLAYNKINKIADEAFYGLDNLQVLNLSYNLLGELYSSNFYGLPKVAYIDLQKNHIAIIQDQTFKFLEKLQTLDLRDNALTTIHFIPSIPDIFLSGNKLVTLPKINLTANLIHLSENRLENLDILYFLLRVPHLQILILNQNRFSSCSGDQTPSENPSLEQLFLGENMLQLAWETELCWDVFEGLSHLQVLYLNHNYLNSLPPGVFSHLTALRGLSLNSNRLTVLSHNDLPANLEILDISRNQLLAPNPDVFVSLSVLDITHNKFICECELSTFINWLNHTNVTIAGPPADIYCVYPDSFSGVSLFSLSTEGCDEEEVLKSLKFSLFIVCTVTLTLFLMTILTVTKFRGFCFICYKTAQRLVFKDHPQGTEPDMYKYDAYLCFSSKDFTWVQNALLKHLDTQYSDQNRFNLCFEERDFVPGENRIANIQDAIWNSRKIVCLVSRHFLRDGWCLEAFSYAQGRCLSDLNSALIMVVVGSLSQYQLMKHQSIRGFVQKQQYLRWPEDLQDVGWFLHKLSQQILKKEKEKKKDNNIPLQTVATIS

Row | inhibition [1] | inhibition [2] | inhibition [3] | Compound
1 | inactive | inactive | inactive | CCCCc1cc2c(N)nc3ccccc3c2o1
2 | inactive | inactive | inactive | CCCc1cc2c(N)nc3ccccc3c2o1
3 | inactive | inactive | inactive | CCCCc1cc2c(nc(N)c3ccccc32)o1
4 | inactive | inactive | inactive | Nc1nc2ccccc2c2oc(-c3ccccc3)cc12
